Assays:
[1] = system: rat oligodendrocyte progenitor cells; assay: Promotive activity of rat oligodendrocyte progenitor cell differentiation-1 (MBP gene expression, mRNA); assay type: cell-based; conditions: 96 h, read-out: promotive activity at T3 base (MBP gene expression; DMSO 0%, T3 100%)
Protocol: Regarding vitamin D derivatives, which was confirmed to act on the vitamin D receptor (VDR) in Example 352, the promotive activity of oligodendrocyte progenitor cell (OPC) differentiation was evaluated by MBP gene expression (mRNA).
A forebrain obtained from SD rat (Charles River Japan, 1 day old) was crushed with 70 μm Cell Strainer (Falcon #352350), and a cell suspension was prepared by collecting the cells in oligodendrocyte progenitor cell separation medium (20% FBS/2 mM Glutamax (Gibco #35050-061)/i mM sodium pyruvate (Gibco #11360-070)/1% penicillin-streptomycin (Invitrogen #15140-122)/DMEM (Gibco #11960-044)). The cell suspension was seeded in a poly-D-lysine coated T75 flask (Thermo Fisher Scientific #132704) and cultured for about 2 weeks. After culturing, the flask was shaken using a rotary shaker ([…] #WB-101SRC) for about 1 hour (37° C., 100 rpm), and the supernatant was discarded to remove microglia. Subsequently, oligodendrocyte progenitor cell separation medium was added to the flask, and the mixture was similarly shaken for about 22 hours (37° C., 200 rpm), and the supernatant was collected to prepare oligodendrocyte progenitor cells. […]

[2] = Evaluation of brain penetration in mice; assay type: in vivo, mouse; conditions: C57BL/6J mice; for Concentration in brain (mean ± SD) at brain Cmax: Test 2: 0.2 mg/kg single oral dose, n=3
Protocol: The administration solution was administered orally to C57BL/6J mice (8 weeks old, male, n=3) at a single dose (1 mg/kg). Mice were euthanized at 6 points of 0.25, 0.5, 1, 2, 4, and 8 hours after administration, and plasma and brain sampling were performed. After preparing a homogenate from the collected brain using Tissue Lyser II (QIAGEN #85300), acetonitrile was added to the homogenate and the homogenate was centrifuged (12000 rpm, 5 minutes) to extract the administered test compound contained in the brain. Similarly, the plasma was subjected to addition of acetonitrile and centrifugal separation to extract the administered test compound contained in the plasma. Each extracted sample was subjected to measurement of the concentration of administered test compound using LC/MS/MS (SHIMADZU UFLC/MS/MS (8050)).
The administration solution was administered orally to C57BL/6J mice (8 weeks old, male, n=3) at a single dose (0.2 mg/kg). Mice were euthanized at 6 points of 0.25, 0.5, 1, 2, 4, and 8 hours after administration, and plasma and brain sampling were performed. After preparing a homogenate from the collected brain using Tissue Lyser II (QIAGEN #85300), acetonitrile was added to the homogenate and the homogenate was centrifuged (12000 rpm, 5 minutes) to extract the administered compound contained in the brain. Similarly, the plasma was subjected to addition of acetonitrile and centrifugal separation to extract the administered test compound contained in the plasma. Each extracted sample was subjected to measurement of the concentration of administered test compound using LC/MS/MS (SHIMADZU UFLC/MS/MS (8050)).

[3] = system: mouse experimental autoimmune encephalomyelitis model; assay: Combination therapy with the vitamin D derivative and an immunosuppressant (fingolimod) in mouse experimental autoimmune encephalomyelitis model; assay type: in vivo; conditions: for clinical score on the day after final administration (Day 30): oral once a day, two weeks
Protocol: Using a mouse experimental autoimmune encephalomyelitis model, we evaluated the efficacy of the vitamin D derivative of the present invention in combination with fingolimod (an immunosuppressant) approved as a therapeutic drug for multiple sclerosis.
A mouse experimental autoimmune encephalomyelitis model was generated using the Hooke Kit MOG35-55/CFA Emulsion PTX (Cosmo Bio #EK-2110). C57BL/6J mice (11 weeks old, female) were anesthetized with 2.5% isoflurane inhalation and administered 0.1 mL of MOG35-55-CFA subcutaneously to the back and base of the tail, and then two hours later, administered 0.1 mL of pertussis toxin (PTX) intraperitoneally for the initial immunization. One day after the first immunization, 0.1 mL of PTX was administered intraperitoneally again. After the first immunization, clinical scores were measured once a day based on the following criteria. • 0 No abnormality • 0.5 Decrease in tension at the tip of the tail • 1.0 Limp tail • 1.5 Limp tail, and weakness of one hind limb • 2.0 Limp tail, and weakness of both hind limbs with abnormal gait • 2.5 Limp tail, and partial paralysis of one hind limb or abnormal righting reflex • 3.0 Limp tail, and partial paralysis of both hind limbs • 3.5 Limp tail, and paralysis of one hind limb • 4.0 Limp tail, and paralyses of both hind limbs • 4.5 Limp tail, paralyses of both hind legs, and weakness of one forelimb • 5.0 Limp tail, paralyses of both hind limbs, and weakness of both forelimbs (moribund)
Sixteen days after the first immunization, the disease-induced groups were divided into six groups of eight mice each based on the clinical scores, and administration of the compound (D023 6 g/kg) or vehicle was started. […] Two weeks after administration, the mice were euthanized and their spinal cords and whole blood were collected. The intact group indicates a non-treated group.

[4] = Evaluation of calcium increasing action in normal mice; conditions: 2 weeks; for Serum calcium conc.: C57BL/6J mice, Vehicle 8.9
Protocol: After acclimatizing C57BL/6J mice (7 weeks old, male) for 1 week, the mice were divided into groups of 5 mice based on the body weight, and administration of the compound or vehicle was started. The administration solution used was a compound (in ethanol) or ethanol diluted 100-fold with 0.1% Trion X-100 (SIGMA #X100-100 ML)/saline, and the repeated oral administration at once a day was performed. After administration of 2 weeks, euthanasia was performed by collecting all blood under general anesthesia.

[5] = compound D023 + fingolimod 0.1 mg/kg (Combination L) vs single group of fingolimod 0.1 mg/kg
[6] = compound D023 + fingolimod 1.0 mg/kg (Combination H) vs single group of fingolimod 1.0 mg/kg

Row | Calcium conc. Fluctuation range ([4]; 20 μg/kg oral once a day) | Serum calcium conc. ([4]; 20 μg/kg oral once a day) | Calcium conc. Fluctuation range ([4]; 60 μg/kg oral once a day) | Serum calcium conc. ([4]; 60 μg/kg oral once a day) | Calcium conc. Fluctuation range ([4]; 200 μg/kg oral once a day) | Serum calcium conc. ([4]; 200 μg/kg oral once a day) | Concentration in brain (mean ± SD) at brain Cmax [2] | SMILES | further results
1 | 0 mg/dL | 8.9 mg/dL | -0.1 mg/dL | 8.8 mg/dL | 0.1 mg/dL | 9.0 mg/dL | 171.2 ± 37.4 pmol/g | C[C@H](CN1CCOC[C@@H]1C)[C@H]1CC[C@H]2/C(=C/C=C3C[C@@H](O)C[C@H](O)C3)CCC[C@]12C [Compound G004, (1R,3R)-5-(2-((1R,3aS,7aR,E)-7a-methyl-1-((S)-1-((S)-3-methylmorpholino)propan-2-yl)octahydro-4H-inden-4-ylidene)ethylidene)cyclohexane-1,3-diol] | –
2 | 0.2 mg/dL | 9.1 mg/dL | 0.2 mg/dL | 9.1 mg/dL | 0.1 mg/dL | 9.0 mg/dL | 140.8 ± 17.6 pmol/g | C[C@H](CN1CCOC[C@H]1C)[C@H]1CC[C@H]2/C(=C/C=C3C[C@@H](O)C[C@H](O)C3)CCC[C@]12C [Compound G005, (1R,3R)-5-(2-((1R,3aS,7aR,E)-7a-methyl-1-((S)-1-((R)-3-methylmorpholino)propan-2-yl)octahydro-4H-inden-4-ylidene)ethylidene)cyclohexane-1,3-diol] | –

Continued, molecule first:

Row | SMILES | Calcium conc. Fluctuation range ([4]; 20 μg/kg oral once a day) | Serum calcium conc. ([4]; 20 μg/kg oral once a day) | Calcium conc. Fluctuation range ([4]; 60 μg/kg oral once a day) | Serum calcium conc. ([4]; 60 μg/kg oral once a day) | Calcium conc. Fluctuation range ([4]; 200 μg/kg oral once a day) | Serum calcium conc. ([4]; 200 μg/kg oral once a day) | Concentration in brain (mean ± SD) at brain Cmax [2] | further results
3 | COC1(C)CCCN(C[C@@H](C)[C@H]2CC[C@H]3/C(=C/C=C4C[C@@H](O)C[C@H](O)C4)CCC[C@]23C)C1 (stereo partly drawn) [Compound C045b, (1R,3R)-5-(2-((1R,3aS,7aR,E)-1-((2S)-1-(3-methoxy-3-methylpiperidine-1-yl)propan-2-yl)-7a-methyloctahydro-4H-inden-4-ylidene)ethylidene)cyclohexane-1,3-diol] | – | – | – | – | – | – | – | activation at 1 µM [1]: ≥ 20%
4 | C[C@H](CN1CCOC2(CC2)C1)[C@H]1CC[C@H]2/C(=C/C=C3C[C@@H](O)C[C@H](O)C3)CCC[C@]12C [Compound D019, (1R,3R)-5-(2-((1R,3aS,7aR,E)-1-((S)-1-(4-oxa-7-azaspiro[2.5]octan-7-yl)propan-2-yl)-7a-methyloctahydro-4H-inden-4-ylidene)ethylidene)cyclohexane-1,3-diol] | – | – | – | – | – | – | – | Concentration ratio in brain/in blood at brain Cmax ([2]; Test 1: 1 mg/kg single oral dose): 2.89
5 | C[C@H](CCN1CCOCC1)[C@H]1CC[C@H]2/C(=C/C=C3C[C@@H](O)C[C@H](O)C3)CCC[C@]12C [Compound D023, (1R,3R)-5-(2-((1R,3aS,7aR,E)-7a-methyl-1-((R)-4-morpholinobutan-2-yl)octahydro-4H-inden-4-ylidene)ethylidene)cyclohexane-1,3-diol] | – | – | – | – | – | – | – | blood lymphocyte count on the day after final administration (Day 30) [3, 5]: no significant difference; clinical score on the day after final administration (Day 30) [3, 5]: significantly lower clinical score; blood lymphocyte count on the day after final administration (Day 30) [3, 6]: neither was there a significant difference; clinical score on the day after final administration (Day 30) [3, 6]: significantly lower clinical score
6 | C[C@H](CN1CCOCC1(C)C)[C@H]1CC[C@H]2/C(=C/C=C3C[C@@H](O)C[C@H](O)C3)CCC[C@]12C [Compound G006, (1R,3R)-5-(2-((1R,3aS,7aR,E)-1-((S)-1-(3,3-dimethylmorpholino)propan-2-yl)-7a-methyloctahydro-4H-inden-4-ylidene)ethylidene)cyclohexane-1,3-diol] | 0 mg/dL | 8.9 mg/dL | 0 mg/dL | 8.9 mg/dL | -0.3 mg/dL | 8.6 mg/dL | 137.8 ± 11.5 pmol/g | –

Reference: patent US20250195488A1, “MEDICINE CONTAINING VITAMIN D DERIVATIVE OR PHARMACEUTICALLY ACCEPTABLE SALT OR SOLVATE THEREOF, USED IN COMBINATION WITH IMMUNOMODULATORY SUBSTANCE” (TEEJIN PHARMA LIMITED, priority 2022, published 2025)
